Reference: patent publication US12564638B2 (SHANGHAITECH UNIVERSITY, priority 2019, dated 2026)

How the values were obtained:
Assay type in all cases: cell-based
[1] = test system: HCC827 cells (EGFR Exon19 del, non-small cell lung cancer cells); experiment: Cell viability assay (WST/CCK8), HCC827 cells; settings: Homo sapiens, HCC827, 72 h, HCC827 (Exon19 Del), 72 hours, WST (CCK8); read-out: IC50 (half inhibitory concentration)
Procedure, shortened: (§1)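 Cells seeded at 3 000/well in RPMI1640 complete medium, dosed next day with compounds (top 10 μM, 3-fold, 10 points) for 72 h. Viability read with WST (CCK8) reagent; DMSO as negative control, EGFR TKIs as positive controls; IC50 determined.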

[2] = test system: PC9BracA1 (EGFR Exon 19 del+T790M, non-small cell lung cancer cells); experiment: Cell viability assay (WST/CCK8), PC9Brac1 cells; settings: PC9Brac1 (Ex19del + T790M), 72 hours, WST; read-out: IC50 (half inhibitory concentration)
Procedure, shortened: (§2)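 Cells seeded at 3 000 per well in RPMI1640 complete medium, dosed next day with compounds at indicated concentrations (DMSO negative control, EGFR TKIs as positive control).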

[3] = target: EGFR (Exon 19del) in HCC827 cells (Homo sapiens, UniProt P00533, DEL746-750); experiment: Western blot of EGFR protein level (degradation), HCC827 cells; settings: HCC827 cells, 1, 10, 50, 100, 500 nM, 16 hours
Chain of EGFR (Exon 19del) in HCC827 cells (P00533 with tags, fused parts or gaps DEL746-750): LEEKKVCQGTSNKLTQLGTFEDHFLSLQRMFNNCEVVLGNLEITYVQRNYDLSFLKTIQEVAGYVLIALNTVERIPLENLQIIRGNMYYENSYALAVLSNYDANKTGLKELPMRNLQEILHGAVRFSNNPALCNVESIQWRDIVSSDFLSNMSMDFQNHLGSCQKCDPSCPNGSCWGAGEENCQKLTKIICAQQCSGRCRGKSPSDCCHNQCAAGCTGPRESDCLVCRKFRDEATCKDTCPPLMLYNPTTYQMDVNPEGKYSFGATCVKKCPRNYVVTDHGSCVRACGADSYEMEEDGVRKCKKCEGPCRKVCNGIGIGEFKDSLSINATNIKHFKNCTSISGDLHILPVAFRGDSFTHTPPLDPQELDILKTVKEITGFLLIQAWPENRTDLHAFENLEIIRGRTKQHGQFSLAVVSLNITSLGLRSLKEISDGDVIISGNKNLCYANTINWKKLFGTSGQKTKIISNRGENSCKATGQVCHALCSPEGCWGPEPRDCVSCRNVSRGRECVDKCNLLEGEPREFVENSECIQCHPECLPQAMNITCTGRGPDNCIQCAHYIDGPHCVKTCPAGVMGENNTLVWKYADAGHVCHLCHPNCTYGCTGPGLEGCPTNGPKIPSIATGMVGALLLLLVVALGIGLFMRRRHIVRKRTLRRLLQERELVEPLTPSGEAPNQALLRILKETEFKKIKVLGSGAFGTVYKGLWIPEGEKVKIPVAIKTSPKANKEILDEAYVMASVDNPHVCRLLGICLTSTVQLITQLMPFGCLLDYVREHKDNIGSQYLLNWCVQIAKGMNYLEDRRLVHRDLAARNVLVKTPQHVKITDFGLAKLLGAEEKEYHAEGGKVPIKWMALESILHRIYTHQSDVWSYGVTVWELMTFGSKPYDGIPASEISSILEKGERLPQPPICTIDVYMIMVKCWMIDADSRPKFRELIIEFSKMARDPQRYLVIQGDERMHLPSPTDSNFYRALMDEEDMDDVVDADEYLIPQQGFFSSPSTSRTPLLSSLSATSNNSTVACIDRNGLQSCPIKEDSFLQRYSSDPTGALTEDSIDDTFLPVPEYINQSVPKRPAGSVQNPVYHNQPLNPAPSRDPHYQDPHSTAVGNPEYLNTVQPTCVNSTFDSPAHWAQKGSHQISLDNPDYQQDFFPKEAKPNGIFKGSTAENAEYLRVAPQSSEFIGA
Description: Cancer cells were planted in 12-well-plate at the density of 0.15 million cells per well with 1 mL RPMI1640 completed culture medium. Compounds with different concentrations (DMSO as a solution system, and 1 μL of compounds of different concentrations was added to 1 mL of the cell culture medium) were added to the cells planted one day before. 16 hours after treated, the medium was discarded and the cells were washed with precooled PBS. The cells were placed on ice and treated with RIPA protein lysis buffer containing halt protease and phosphatase inhibitor. After centrifugation at 10000 rpm at 4° C. for 10 minutes, the supernatant was collected. The same amount of proteins were added into 4×SDS loading buffer and heated at 95° C. for 5 minutes for denaturation, and the samples were stored at −20° C. after denaturation, or directly conducted protein electrophoresis. The 4-20% gradient preformed Electrophoretic gels were purchased from Kingsy. The electrophoresis tank and related components were purchased from Bio-rad company, and the electrophoresis condition was isobaric 120V for 2 hours. […]
The degradation efficacy of the dacomitinib-based compounds on EGFR was determined in HCC827 and H1975 cell lines, which harboring EGFR Exon 19del and EGFR L858R+T790M mutations respectively. […]

[4] = test system: H1975 (EGFR T790M+L858R mutation, non-small cell lung cancer cell line); experiment: Cell viability assay (WST/CCK8), H1975 cells; settings: Homo sapiens, NCI-H1975; H1975 (L858R + T790M), 72 hours, WST; read-out: IC50 (half inhibitory concentration)
Procedure, shortened: as §2

[5] = test system: PC9 cells (EGFR Exon 19 del, non-small cell lung cancer cells); experiment: Cell viability assay (WST/CCK8), PC9 cells; settings: Homo sapiens, PC-9; PC9 (Exon19 Del), 72 hours, WST (CCK8); read-out: IC50 (half inhibitory concentration)
Procedure, shortened: as §1

IC50 [1]: 0.5 nM | IC50 [2]: 674 nM | EGFR degradation (EGFR level, western blot) [3]: couldn't degrade EGFR | IC50 [4]: 834 nM | IC50 [5]: 0.4 nM
Compound: COc1cc2ncnc(Nc3ccc(F)c(Cl)c3)c2cc1NC(=O)/C=C/CN1CCCCC1 [dacomitinib, reference compound]
